Source: patent publication US10363239B2, “Method for inhibiting growth of cancer cells” (Pain Therapeutics, Inc., priority 2013, dated 2019)
Read-outs that look alike come from different tables or passages of the source.

How the values were obtained:
[1] = biological target: FLNA pentapeptide of SEQ ID NO: 1 (Bn-VAKGL) (Homo sapiens, UniProt P21333); experiment: FITC-NLX-based FLNA screening assay (inhibition of FITC-naloxone binding to Bn-VAKGL on streptavidin plates); conditions: 10 nM FITC-NLX
mu opiate receptor (MOR) = experiment: MOR agonist activity using [35S]GTPγS binding assay in striatal membranes; type: biochemical; conditions: for MOR agonist activity ([35S]GTPγS binding), FLNA-Binding Compound as Agonist 1 μM + BFNA: 1 μM compound + 1 μM β-funaltrexamine
Outline: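 Striatal membranes (200 μg) were preincubated 5 min at 30 °C in HEPES pH 7.5 with 100 mM NaCl, 1 mM MgCl2 and 0.5 nM [35S]GTPγS, then 5 min more with 0.1–10 μM compound. Gαo was immunoprecipitated and bound radioactivity counted by scintillation.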

[2] = read-out: Percent Binding Inhibition, FLNA-binding compound 0.01 μM
[3] = read-out: Percent Binding Inhibition, FLNA-binding compound 0.1 μM
[4] = read-out: Percent Binding Inhibition, FLNA-binding compound 1 μM
[5] = Series B, 0.1 μM compound, relative to DAMGO
[6] = Series B, 0.1 μM compound, [35S]GTPγS binding to Gαo, striatal membranes
[7] = Series B, 1 μM compound + 1 μM β-FNA
[8] = Series B, 1 μM compound + β-FNA, relative to DAMGO + BFNA
[9] = Series B, 1 μM compound, relative to DAMGO
[10] = Series B, 1 μM compound, [35S]GTPγS binding to Gαo, striatal membranes
[11] = 0.1 μM compound relative to DAMGO
[12] = 1 μM compound + BFNA relative to DAMGO + BFNA
[13] = 1 μM compound relative to DAMGO
[14] = Series C-1, 0.1 μM compound, relative to DAMGO
[15] = Series C-1, 0.1 μM compound, [35S]GTPγS binding to Gαo, striatal membranes
[16] = Series C-1, 1 μM compound + 1 μM β-FNA
[17] = Series C-1, 1 μM compound + β-FNA, relative to DAMGO + BFNA
[18] = Series C-1, 1 μM compound, relative to DAMGO
[19] = Series C-1, 1 μM compound, [35S]GTPγS binding to Gαo, striatal membranes
[20] = FLNA-binding compound 0.01 μM, read-out: Percent Binding Inhibition
[21] = FLNA-binding compound 0.1 μM, read-out: Percent Binding Inhibition
[22] = FLNA-binding compound 1 μM, read-out: Percent Binding Inhibition

Row | Compound | inhibition at 0.01 µM [1, 2] [%] | inhibition at 0.1 µM [1, 3] [%] | inhibition at 1 µM [1, 4] [%] | MOR agonist activity ([35S]GTPγS binding), FLNA-Binding Compound as Agonist 0.1 μM (mu opiate receptor (MOR); 0.1 μM compound) [%] | % DAMGO (0.1 μM) (mu opiate receptor (MOR); [11]) [%] | MOR agonist activity ([35S]GTPγS binding), FLNA-Binding Compound as Agonist 1 μM (mu opiate receptor (MOR); 1 μM compound) [%] | MOR agonist activity ([35S]GTPγS binding), FLNA-Binding Compound as Agonist 1 μM + BFNA (mu opiate receptor (MOR)) [%] | % DAMGO + BFNA (mu opiate receptor (MOR); [12]) [%] | % DAMGO (1 μM) (mu opiate receptor (MOR); [13]) [%] | % DAMGO (0.1 μM) (mu opiate receptor (MOR); [14]) [%] | Concentration of FLNA-Binding Compound as Agonist 0.1 μM (mu opiate receptor (MOR); [15]) [%] | Concentration of FLNA-Binding Compound as Agonist 1 μM + BFNA (mu opiate receptor (MOR); [16]) [%] | % DAMGO + BFNA (mu opiate receptor (MOR); [17]) [%] | % DAMGO (1 μM) (mu opiate receptor (MOR); [18]) [%] | Concentration of FLNA-Binding Compound as Agonist 1 μM (mu opiate receptor (MOR); [19]) [%] | further results
1 | COCOc1ccc(C(=O)CC2c3c(cc4c(c3OC)OCO4)CC[N+]2(C)C)cc1C (stereo not drawn) [Compound B0041] | 44 | 46.8 | 52.8 | – | – | – | – | – | – | – | – | – | – | – | – | % DAMGO (0.1 μM) (mu opiate receptor (MOR); [5]): 39.3%; MOR agonist activity, percent [35S]GTPγS binding at the stated compound concentration (mu opiate receptor (MOR); [6]): 61.6%; MOR agonist activity, percent [35S]GTPγS binding at the stated compound concentration (mu opiate receptor (MOR); [7]): 41.9%; % DAMGO + BFNA (mu opiate receptor (MOR); [8]): 128.5%; % DAMGO (1 μM) (mu opiate receptor (MOR); [9]): 47.2%; MOR agonist activity, percent [35S]GTPγS binding at the stated compound concentration (mu opiate receptor (MOR); [10]): 109.3%
2 | COc1ccc(N2CCN(CC(O)COC3CC(C)CCC3C(C)C)CC2)c(OC)c1 (stereo not drawn) [Compound A0012] | 39.7 | 49.6 | 54.4 | 149.3 | 99.9 | 185.7 | 122.4 | 461.9 | 80.7 | – | – | – | – | – | – | –
3 | O=S(=O)(c1ccccc1)N1CCC2(CC1)OCCN2S(=O)(=O)c1ccccc1 [Compound C0016] | 38.3 | 43.8 | 49.1 | – | – | – | – | – | – | 100.4 | 172.7 | 96.7 | 150.9 | 83.3 | 230.5 | –
4 | CN1CCC2(CC1)NCC(=O)N2Cc1ccccc1 [Compound C0105M] | 55.7 | 62 | 68.8 | – | – | – | – | – | – | – | – | – | – | – | – | % DAMGO (0.1 μM) (mu opiate receptor (MOR); Series C-2, 0.1 μM compound, relative to DAMGO): 104.7%; MOR agonist activity, percent [35S]GTPγS binding at the stated compound concentration (mu opiate receptor (MOR); Series C-2, 0.1 μM compound, [35S]GTPγS binding to Gαo, striatal membranes): 198.1%; MOR agonist activity, percent [35S]GTPγS binding at the stated compound concentration (mu opiate receptor (MOR); Series C-2, 1 μM compound + 1 μM β-FNA): 73.1%; % DAMGO + BFNA (mu opiate receptor (MOR); Series C-2, 1 μM compound + β-FNA, relative to DAMGO + BFNA): 150.7%; % DAMGO (1 μM) (mu opiate receptor (MOR); Series C-2, 1 μM compound, relative to DAMGO): 88.8%; MOR agonist activity, percent [35S]GTPγS binding at the stated compound concentration (mu opiate receptor (MOR); Series C-2, 1 μM compound, [35S]GTPγS binding to Gαo, striatal membranes): 220.3%
5 | COc1c2c(cc3c1C(CC(=O)/C=C/c1ccc(Cl)cc1)[N+](C)(C)CC3)OCO2 (stereo not drawn) [Compound B0019] | 34.3 | 41 | 49 | – | – | – | – | – | – | – | – | – | – | – | – | % DAMGO (0.1 μM) (mu opiate receptor (MOR); [5]): 59.7%; MOR agonist activity, percent [35S]GTPγS binding at the stated compound concentration (mu opiate receptor (MOR); [6]): 101.0%; MOR agonist activity, percent [35S]GTPγS binding at the stated compound concentration (mu opiate receptor (MOR); [7]): 81.4%; % DAMGO + BFNA (mu opiate receptor (MOR); [8]): 123.3%; % DAMGO (1 μM) (mu opiate receptor (MOR); [9]): 96.0%; MOR agonist activity, percent [35S]GTPγS binding at the stated compound concentration (mu opiate receptor (MOR); [10]): 256.5%
6 | COc1ccccc1S(=O)(=O)N1CCC2(CC1)OCCN2S(=O)(=O)c1ccccc1OC [Compound C0003] | 38.3 | 45.3 | 48.8 | – | – | – | – | – | – | 91.9 | 162.3 | 107.7 | 163.9 | 83.3 | 215.9 | –
7 | N#Cc1ccccc1S(=O)(=O)N1CCC2(CC1)OCCN2S(=O)(=O)c1ccccc1C#N [Compound C0004] | 37.6 | 42.3 | 44.7 | – | – | – | – | – | – | 72.1 | 122.0 | 65.8 | 99.7 | 85.4 | 228.4 | –
8 | CC1CCC(C(C)C)C(OCC(O)CN2CC(C)CC(C)C2)C1 (stereo not drawn) [Compound A0008] | – | – | – | 163.8 | 109.6 | 235.0 | 133.9 | 505.3 | 102.1 | – | – | – | – | – | – | inhibition at 0.01 µM [1, 20]: 34.5%; inhibition at 0.1 µM [1, 21]: 33.5%; inhibition at 1 µM [1, 22]: 39.8%
9 | CC1CCC(C(C)C)C(OCC(O)CN2CCN(CCCN3CCOCC3)CC2)C1 (stereo not drawn) [Compound A0026] | – | – | – | 140.7 | 79.7 | 179.8 | 120.8 | 459.3 | 70.7 | – | – | – | – | – | – | inhibition at 0.01 µM [1, 20]: 36.4%; inhibition at 0.1 µM [1, 21]: 42.4%; inhibition at 1 µM [1, 22]: 49.2%
